According to patent publication US20260042731A1, “(2,4-DICHLOROPHENOXY)ACETIC ACID ANALOGS” (CORTEVA AGRISCIENCE LLC, priority 2022, published 2026):
Read-outs that look alike come from different tables or passages of the source.

Tests used:
[1] = system: Chenopodium album (CHEAL), common lambsquarters; test: Postemergence herbicide evaluation, growth of Chenopodium album (CHEAL); type: in vivo; conditions: Chenopodium album, post-emergence, read-out: Ave. CHEAL, percent reduction in plant size relative to the untreated control; for pest or weed control at 280 g/ha: 280 g ae/ha; for pest or weed control at 560 g/ha: 560 g ae/ha
[2] = system: Abutilon theophrasti (ABUTH), velvetleaf; test: Postemergence herbicide evaluation, growth of Abutilon theophrasti (ABUTH); type: in vivo; conditions: Abutilon theophrasti, post-emergence, read-out: AVE. ABUTH, percent reduction in plant size relative to the untreated control; for pest or weed control at 280 g/ha: 280 g ae/ha; for pest or weed control at 560 g/ha: 560 g ae/ha
[3] = system: weeds ABUTH, AMATA, AMBEL, CHEAL, ERICA; test: Postemergence herbicide evaluation, overall average % weed control (ABUTH, AMATA, AMBEL, CHEAL, ERICA); type: in vivo; conditions: post-emergence, read-out: Overall Ave % Weed Control; for pest or weed control at 280 g/ha: 280 g ae/ha; for pest or weed control at 560 g/ha: 560 g ae/ha
[4] = system: Ambrosia artemisiifolia (AMBEL), common ragweed; test: Postemergence herbicide evaluation, growth of Ambrosia artemisiifolia (AMBEL); type: in vivo; conditions: Ambrosia artemisiifolia, post-emergence, read-out: AVE. AMBEL, percent reduction in plant size relative to the untreated control; for pest or weed control at 280 g/ha: 280 g ae/ha; for pest or weed control at 560 g/ha: 560 g ae/ha
[5] = Volatility of compounds measured by thermogravimetric analysis (TGA); type: physicochemical
[6] = system: glyphosate resistant Conyza canadensis (L.) (ERICA), horseweed; test: Postemergence herbicide evaluation, growth of Conyza canadensis (ERICA); type: in vivo; conditions: Erigeron canadensis, post-emergence, read-out: Ave. ERICA, percent reduction in plant size relative to the untreated control; for pest or weed control at 280 g/ha: 280 g ae/ha; for pest or weed control at 560 g/ha: 560 g ae/ha
[7] = system: Amaranthus rudis (AMATA), tall water hemp; test: Postemergence herbicide evaluation, growth of Amaranthus rudis (AMATA); type: in vivo; conditions: Amaranthus tuberculatus, post-emergence, read-out: Ave. AMATA, percent reduction in plant size relative to the untreated control; for pest or weed control at 280 g/ha: 280 g ae/ha; for pest or weed control at 560 g/ha: 560 g ae/ha

Structure (SMILES)	pest or weed control at 280 g/ha ([1]; 168 h, 7 DAA) [%]	pest or weed control at 560 g/ha ([1]; 168 h, 7 DAA) [%]	pest or weed control at 280 g/ha ([1]; 336 h, 14 DAA) [%]	pest or weed control at 560 g/ha ([1]; 336 h, 14 DAA) [%]	pest or weed control at 280 g/ha ([1]; 504 h, 21 DAA) [%]	pest or weed control at 560 g/ha ([1]; 504 h, 21 DAA) [%]	pest or weed control at 280 g/ha ([2]; 168 h, 7 DAA) [%]	pest or weed control at 560 g/ha ([2]; 168 h, 7 DAA) [%]	pest or weed control at 280 g/ha ([2]; 336 h, 14 DAA) [%]	pest or weed control at 560 g/ha ([2]; 336 h, 14 DAA) [%]	pest or weed control at 280 g/ha ([2]; 504 h, 21 DAA) [%]	pest or weed control at 560 g/ha ([2]; 504 h, 21 DAA) [%]	pest or weed control at 280 g/ha ([3]; 168 h, 7 DAA) [%]	pest or weed control at 560 g/ha ([3]; 168 h, 7 DAA) [%]	pest or weed control at 280 g/ha ([3]; 336 h, 14 DAA) [%]	pest or weed control at 560 g/ha ([3]; 336 h, 14 DAA) [%]	pest or weed control at 280 g/ha ([3]; 504 h, 21 DAA) [%]	pest or weed control at 560 g/ha ([3]; 504 h, 21 DAA) [%]	pest or weed control at 280 g/ha ([4]; 168 h, 7 DAA) [%]	pest or weed control at 560 g/ha ([4]; 168 h, 7 DAA) [%]	further results
C/C(=N\OC(=O)COc1ccc(Cl)cc1Cl)c1ccccc1 [Compound A1, Acetophenone O-(2-(2,4-dichlorophenoxy)acetyl) oxime]	70	70	78	89	83	98	83	85	96	97	97	100	73	77	87	92	89	95	65	80	pest or weed control at 280 g/ha ([4]; 336 h, 14 DAA): 88%; pest or weed control at 560 g/ha ([4]; 336 h, 14 DAA): 97%; pest or weed control at 280 g/ha ([4]; 504 h, 21 DAA): 95%; pest or weed control at 560 g/ha ([4]; 504 h, 21 DAA): 100%; TGA Data (rate of weight loss, volatility) [5]: 0.5 µg/min; pest or weed control at 280 g/ha ([6]; 168 h, 7 DAA): 73%; pest or weed control at 560 g/ha ([6]; 168 h, 7 DAA): 73%; pest or weed control at 280 g/ha ([6]; 336 h, 14 DAA): 90%; pest or weed control at 560 g/ha ([6]; 336 h, 14 DAA): 90%; pest or weed control at 280 g/ha ([6]; 504 h, 21 DAA): 93%; pest or weed control at 560 g/ha ([6]; 504 h, 21 DAA): 98%; pest or weed control at 280 g/ha ([7]; 168 h, 7 DAA): 73%; pest or weed control at 560 g/ha ([7]; 168 h, 7 DAA): 78%; pest or weed control at 280 g/ha ([7]; 336 h, 14 DAA): 85%; pest or weed control at 560 g/ha ([7]; 336 h, 14 DAA): 87%; pest or weed control at 280 g/ha ([7]; 504 h, 21 DAA): 80%; pest or weed control at 560 g/ha ([7]; 504 h, 21 DAA): 82%
O=C(COc1ccc(Cl)cc1Cl)O/N=C/c1ccccc1 [Compound A2, (E)-benzaldehyde O-(2-(2,4-dichlorophenoxy)acetyl) oxime]	70	73	70	85	73	87	85	85	94	96	98	96	71	76	84	90	87	93	65	73	pest or weed control at 280 g/ha ([4]; 336 h, 14 DAA): 92%; pest or weed control at 560 g/ha ([4]; 336 h, 14 DAA): 96%; pest or weed control at 280 g/ha ([4]; 504 h, 21 DAA): 91%; pest or weed control at 560 g/ha ([4]; 504 h, 21 DAA): 100%; TGA Data (rate of weight loss, volatility) [5]: 0.8 µg/min; pest or weed control at 280 g/ha ([6]; 168 h, 7 DAA): 68%; pest or weed control at 560 g/ha ([6]; 168 h, 7 DAA): 73%; pest or weed control at 280 g/ha ([6]; 336 h, 14 DAA): 93%; pest or weed control at 560 g/ha ([6]; 336 h, 14 DAA): 85%; pest or weed control at 280 g/ha ([6]; 504 h, 21 DAA): 90%; pest or weed control at 560 g/ha ([6]; 504 h, 21 DAA): 98%; pest or weed control at 280 g/ha ([7]; 168 h, 7 DAA): 68%; pest or weed control at 560 g/ha ([7]; 168 h, 7 DAA): 75%; pest or weed control at 280 g/ha ([7]; 336 h, 14 DAA): 70%; pest or weed control at 560 g/ha ([7]; 336 h, 14 DAA): 88%; pest or weed control at 280 g/ha ([7]; 504 h, 21 DAA): 73%; pest or weed control at 560 g/ha ([7]; 504 h, 21 DAA): 87%
